From patent US20240025862A1, “SUBSTITUTED N-PHENYLURACILS AND SALTS THEREOF, AND USE THEREOF AS HERBICIDAL ACTIVE SUBSTANCES” (Bayer Aktiengesellschaft, priority 2020, published 2024)

Experiments:
Type in all cases: in vivo
[1] = test system: Oryza sativa (ORYSA); assay: Post-emergence crop plant compatibility, greenhouse pot test (also comparative test C); conditions: 1.25 g/ha, vs untreated controls
Outline: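 Rice and other crops sprayed post-emergence at one-leaf stage (2–3 weeks after sowing) with WP or EC formulations plus 0.5% additive at 600 l/ha water. Visual rating about 3 weeks later versus untreated controls (100% = dead, 0% = like control); suffixes a–c denote different doses.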

[2] = test system: Setaria viridis (SETVI); assay: Post-emergence herbicidal action, greenhouse pot test (also comparative test C); conditions: for Post-emergence action against SETVI: 20 g/ha
Outline: (§1)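 Green parts of one-leaf-stage plants are sprayed at 600 l/ha with formulated compound plus 0.5% additive, then kept under optimum greenhouse conditions for about 3 weeks. Damage is scored visually, where 100% means dead plants and 0% means no difference from controls.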

[3] = test system: Alopecurus myosuroides (ALOMY); assay: as above; conditions: rated visually after about 3 weeks vs untreated controls, 100% = plants have died
Outline: as §1

[4] = test system: Echinochloa crus-galli (ECHCG); assay: as above
Outline: as §1

[5] = test system: Matricaria inodora (MATIN); assay: as above
Outline: as §1

[6] = test system: Polygonum convolvulus (POLCO); assay: Post-emergence herbicidal action, greenhouse pot test
Outline: (§2)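 Greenhouse-grown weeds in sandy loam were sprayed post-emergence at the one-leaf stage, 2–3 weeks after sowing. Compounds were formulated as WP or EC in water with 0.5% additive at 600 l/ha, at rates of 20 g/ha or less. Visual rating after about 3 weeks used a scale from 0% (like untreated control) to 100% (plants dead).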

[7] = test system: Abutilon theophrasti (ABUTH); assay: as above; conditions: rated visually after about 3 weeks vs untreated controls, 100% = plants have died
Outline: as §2

[8] = test system: Lolium rigidum (LOLRI); assay: as above; conditions: dosage 20 g/ha
Outline: as §2

[9] = test system: Amaranthus retroflexus (AMARE); assay: as above; conditions: rated visually after about 3 weeks vs untreated controls, 100% = plants have died
Outline: as §2

[10] = test system: Viola tricolor (VIOTR); assay: as above
Outline: as §2

[11] = test system: Pharbitis purpurea (PHBPU); assay: as above
Outline: as §2

[12] = test system: Avena fatua (AVEFA); assay: as above; conditions: 20 g/ha, rated visually after about 3 weeks vs untreated controls, 100% = plants have died
Outline: as §2

[13] = test system: Veronica persica (VERPE); assay: as above
Outline: as §2

[14] = test system: Zea mays (ZEAMX); assay: Post-emergence crop plant compatibility, greenhouse pot test; conditions: 1.25 g/ha, vs untreated controls
Outline: (§3)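 Percent crop injury was judged by eye roughly three weeks after treatment, relative to untreated plants, where 100% meant death. Application was a post-emergence spray at the one-leaf stage, 600 l/ha water volume with 0.5% additive; letters a, b, c denote differing dose rates.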

[15] = test system: Triticum aestivum (TRZAS); assay: as above; conditions: vs untreated controls
Outline: as §3

| Post-emergence action against ORYSA (crop plant compatibility) [1] [%] | Structure (SMILES) | Post-emergence action against SETVI [2] [%] | Post-emergence action against SETVI in % ([2]; dosage 1.25 g/ha) [%] | Post-emergence action against SETVI in % ([2]; dosage 5 g/ha) [%] | Post-emergence action at 5 g/ha against ALOMY in % [3] [%] | Post-emergence action at 20 g/ha against ALOMY in % [3] [%] | Post-emergence action against ECHCG in % ([4]; dosage 5 g/ha) [%] | Post-emergence action against ECHCG in % ([4]; dosage 20 g/ha) [%] | Post-emergence action against MATIN in % ([5]; dosage 5 g/ha) [%] | Post-emergence action against MATIN in % ([5]; dosage 20 g/ha) [%] | Post-emergence action against POLCO in % ([6]; dosage 20 g/ha) [%] | Post-emergence action at 1.25 g/ha against ABUTH in % [7] [%] | Post-emergence action at 5 g/ha against ABUTH in % [7] [%] | Post-emergence action at 20 g/ha against ABUTH in % [7] [%] | Post-emergence action against LOLRI in % [8] [%] | Post-emergence action at 1.25 g/ha against AMARE in % [9] [%] | Post-emergence action at 5 g/ha against AMARE in % [9] [%] | Post-emergence action at 20 g/ha against AMARE in % [9] [%] | Post-emergence action against VIOTR ([10]; 1.25 g/ha) [%] | Post-emergence action against VIOTR ([10]; 5 g/ha) [%] | also measured |
| --- | --- | --- | --- | --- | --- | --- | --- | --- | --- | --- | --- | --- | --- | --- | --- | --- | --- | --- | --- | --- | --- |
| 0 | CCOCCOC(=O)COc1ccccc1Oc1cc(-n2c(=O)cc(C(F)(F)F)n(C)c2=O)c(F)cc1Cl [I.7-2] | 100 | 100 | 100 | 80 | 100 | 100 | 100 | 80 | 100 | 100 | 100 | 100 | 100 | 80 | 100 | 100 | 100 | 100 | 100 | Post-emergence action against MATIN in % ([5]; dosage 1.25 g/ha): 80%; Post-emergence action against VIOTR ([10]; 20 g/ha): 100%; Post-emergence action against PHBPU in % ([11]; dosage 1.25 g/ha): 100%; Post-emergence action against PHBPU in % ([11]; dosage 5 g/ha): 100%; Post-emergence action against PHBPU in % ([11]; dosage 20 g/ha): 100%; Post-emergence action at 20 g/ha against AVEFA in % [12]: 90%; Post-emergence action against VERPE ([13]; 1.25 g/ha): 80%; Post-emergence action against VERPE ([13]; 5 g/ha): 100%; Post-emergence action against VERPE ([13]; 20 g/ha): 100%; Post-emergence action against ZEAMX (crop plant compatibility) [14]: 0%; Post-emergence action against TRZAS (crop plant compatibility) ([15]; 1.25 g/ha): 20%; Post-emergence action against TRZAS (crop plant compatibility) ([15]; 5 g/ha): 20% |
| 0 | Cn1c(C(F)(F)F)cc(=O)n(-c2cc(Oc3ccccc3OCC(=O)OCc3ccncc3)c(Cl)cc2F)c1=O [I.7-278] | 100 | 100 | 100 | 90 | 100 | 100 | 100 | 80 | 100 | 100 | 100 | 100 | 100 | 80 | 100 | 100 | 100 | 90 | 100 | Post-emergence action at 1.25 g/ha against ECHCG in % ([4]; 1.25 g/ha, rated visually after about 3 weeks vs untreated controls, 100% = plants have died): 80%; Post-emergence action against POLCO in % ([6]; dosage 5 g/ha): 80%; Post-emergence action against VIOTR ([10]; 20 g/ha): 100%; Post-emergence action against PHBPU in % ([11]; dosage 1.25 g/ha): 100%; Post-emergence action against PHBPU in % ([11]; dosage 5 g/ha): 100%; Post-emergence action against PHBPU in % ([11]; dosage 20 g/ha): 100%; Post-emergence action at 20 g/ha against AVEFA in % [12]: 80%; Post-emergence action against VERPE ([13]; 1.25 g/ha): 100%; Post-emergence action against VERPE ([13]; 5 g/ha): 100%; Post-emergence action against VERPE ([13]; 20 g/ha): 100%; Post-emergence action against ZEAMX (crop plant compatibility) [14]: 0% |
